In patent US20120225061A1, “TETRASUBSTITUTED CYCLOHEXYL COMPOUNDS AS KINASE INHIBITORS” (priority 2011, published 2012) one finds IC50 and EC50 data, which are given here for 17 compounds.

Read-outs that look alike come from different tables or passages of the source.

Experiment [1] concerns the target T1, Pim2 kinase (Homo sapiens, UniProt Q9P1W9). The experiment can be described thus: KinaseGlo Pim2 ATP depletion assay. The class given is biochemical. Particulars: Table 4, 5 nM PIM2, 4 μM ATP, 10 μM BAD peptide. As to the method:
The activity of PIM2 is measured using a luciferase-luciferin based ATP detection reagent to quantify ATP depletion resulting from kinase-catalyzed phosphoryl transfer to a peptide substrate. Compounds to be tested are dissolved in 100% DMSO and directly distributed into white 384-well plates at 0.5 μl per well. […] After 15 minutes, 10 μl of 8 μM ATP in assay buffer is added. Final assay concentrations are 5 nM PIM2, 4 μM ATP, 10 μM BAD peptide and 2.5% DMSO. The reaction is performed until approximately 50% of the ATP is depleted, then stopped with the addition of 20 μl KinaseGlo Plus (Promega Corporation) solution. The stopped reaction is incubated for 10 minutes and the remaining ATP detected via luminescence on the Victor2 (Perkin Elmer).
A general note: In Kinase-Glo more light means more ATP remaining.

The next experiment has as its target Pim1 kinase (Homo sapiens, UniProt P11309). In words: Pim1 AlphaScreen assay (high ATP). A general note: In Alpha technology, singlet oxygen from a donor bead excites a nearby acceptor bead.
The test system of experiment [2] is KMS11 (human myeloma cell line). The experiment can be described thus: Cell proliferation assay (CellTiter-Glo) in KMS11 cells. The class given is cell-based. Particulars: KMS-11, 72 h, read-out: KMS11-luc EC50. Put shortly: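 KMS11 cells at 2000 per well in IMDM/10% FBS were exposed to compound for 3 days. Viability was read by CellTiter-Glo luminescence.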
A general note: ATP-based viability assays read luminescence as a measure of living cells.

Experiment [3] addresses T1, Pim2 kinase. In words: Pim2 AlphaScreen assay (high ATP).
For another experiment, the target named is Pim3 kinase (Homo sapiens, UniProt Q86V86). The experiment can be described thus: Pim3 AlphaScreen assay (high ATP).

Chain of Pim1 kinase (P11309 whole entry): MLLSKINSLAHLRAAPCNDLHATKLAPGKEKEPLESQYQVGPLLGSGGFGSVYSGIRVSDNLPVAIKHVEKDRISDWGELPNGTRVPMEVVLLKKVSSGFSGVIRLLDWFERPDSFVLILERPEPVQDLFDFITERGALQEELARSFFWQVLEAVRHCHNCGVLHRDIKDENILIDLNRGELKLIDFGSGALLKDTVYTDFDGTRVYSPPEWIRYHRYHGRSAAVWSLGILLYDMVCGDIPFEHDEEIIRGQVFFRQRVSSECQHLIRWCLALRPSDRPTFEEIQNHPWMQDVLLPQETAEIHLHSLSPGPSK
T1 sequence (Q9P1W9 whole entry): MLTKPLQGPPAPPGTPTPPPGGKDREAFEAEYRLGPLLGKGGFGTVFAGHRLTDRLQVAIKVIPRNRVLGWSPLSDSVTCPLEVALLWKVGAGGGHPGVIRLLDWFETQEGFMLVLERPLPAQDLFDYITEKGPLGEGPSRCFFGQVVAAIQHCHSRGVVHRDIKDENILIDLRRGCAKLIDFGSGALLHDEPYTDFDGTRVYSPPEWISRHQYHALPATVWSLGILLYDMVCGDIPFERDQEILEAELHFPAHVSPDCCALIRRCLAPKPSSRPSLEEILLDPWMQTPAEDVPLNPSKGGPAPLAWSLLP
Protocol for Pim3 kinase: The activity of Pim 1, Pim 2, & Pim 3 is measured using a homogeneous bead based system quantifying the amount of phosphorylated peptide substrate resulting from kinase-catalyzed phosphoryl transfer to a peptide substrate. Compounds to be tested are dissolved in 100% DMSO and directly distributed to a white 384-well plate at 0.25 μl per well. […] This is followed by the addition of 5 μl/well of Pim 1, Pim 2 or Pim 3 kinase in assay buffer (concentrations described below). Final assay concentrations (described below) are in 2.5% DMSO. The reactions are performed for ˜2 hours, then stopped by the addition of 10 μl of 0.75 μg/ml anti-phospho Ser/Thr antibody (Cell Signaling), 10 μg/ml Protein A AlphaScreen beads (Perkin Elmer), and 10 μg/ml streptavidin coated AlphaScreen beads in stop/detection buffer (50 mM EDTA, 95 mM Tris, pH=7.5, 0.01% Tween-20). The stopped reactions are incubated overnight in the dark. The phosphorylated peptide is detected via an oxygen anion initiated chemiluminescence/fluorescence cascade using the Envision plate reader (Perkin Elmer).

Turning to `C[C@H]1C[C@@H](c2ccncc2NC(=O)c2nc(-c3ncccc3F)c(F)cc2N)C[C@@H](O)C1(C)O` (stereo in doubt) [Example 130, 5-amino-N-(4-((1R,3R,4R,5S)-3,4-dihydroxy-4,5-dimethylcyclohexyl)pyridin-3-yl)-3,3′-difluoro-2,2′-bipyridine-6-carboxamide], the IC50 (as a rule, the concentration at which inhibition is half-maximal) against Pim2 kinase [1] stood at 8.8 nM; against Pim1 kinase, 9.82 nM; on Pim2 kinase [3], 2140 nM; against Pim3 kinase it was 383 nM. Also, the EC50 – broadly, the concentration giving half of the maximal effect – is 8960 nM in experiment [2] (Table 4, 3 days) and 8960 nM in experiment [2] (Table 5, 3 days).
As for `C[C@@H]1C[C@H](c2ccncc2NC(=O)c2csc(-c3c(F)cccc3F)n2)C[C@H](N)[C@@]1(C)O` [Example 25, N-(4-((1S,3S,4S,5R)-3-amino-4-hydroxy-4,5-dimethylcyclohexyl)pyridin-3-yl)-2-(2,6-difluorophenyl)thiazole-4-carboxamide], the concentration for half-maximal inhibition (IC50) against Pim2 kinase [1] is 2010 nM; against Pim1 kinase, 111 nM; against Pim2 kinase [3], 8130 nM; against Pim3 kinase, 992 nM.
As for `C[C@H]1C[C@@H](c2ccncc2NC(=O)c2csc(-c3c(F)cccc3F)n2)C[C@@H](N)[C@]1(C)O` [Example 26, N-(4-((1R,3R,4R,5S)-3-amino-4-hydroxy-4,5-dimethylcyclohexyl)pyridin-3-yl)-2-(2,6-difluorophenyl) thiazole-4-carboxamide], the IC50 against Pim2 kinase [1] worked out at 20.8 nM; on Pim1 kinase, 1.9 nM; on Pim2 kinase [3] it was 109 nM; on Pim3 kinase it was 17.2 nM.
With `C[C@H]1C[C@@H](c2ccncc2NC(=O)c2ccc(F)c(-c3c(F)cccc3F)n2)C[C@@H](N)[C@]1(C)O` [Example 27, N-(4-((1R,3R,4R,5S)-3-amino-4-hydroxy-4,5-dimethylcyclohexyl)pyridin-3-yl)-6-(2,6-difluorophenyl)-5-fluoropicolinamide], the half-inhibitory concentration (IC50) was 3.8 nM at Pim2 kinase [1], 0.11 nM against Pim1 kinase, 5.73 nM against Pim2 kinase [3] and 0.99 nM against Pim3 kinase. For the same compound, the EC50 in experiment [2] (Table 4, 3 days) is 140 nM; in experiment [2] (Table 5, 3 days), 138 nM.
As for `C[C@@H]1C[C@H](c2ccncc2NC(=O)c2ccc(F)c(-c3c(F)cccc3F)n2)C[C@H](N)[C@@]1(C)O` [Example 28, N-(4-((1S,3S,4S,5R)-3-amino-4-hydroxy-4,5-dimethylcyclohexyl)pyridin-3-yl)-6-(2,6-difluorophenyl)-5-fluoropicolinamide], the IC50 came to 229 nM on Pim2 kinase [1], 18.3 nM against Pim1 kinase, 476 nM on Pim2 kinase [3] and 138 nM against Pim3 kinase.
Consider `C[C@@H]1C[C@H](c2ccncc2NC(=O)c2ccc(F)c(-c3c(F)cccc3F)n2)C[C@H](O)[C@]1(O)CF` [Example 29, 6-(2,6-difluorophenyl)-5-fluoro-N-(4-((1S,3S,4S,5R)-4-(fluoromethyl)-3,4-dihydroxy-5-methylyclohexyl)pyridin-3-yl) picolinamide], for which the IC50 against Pim2 kinase [1] stood at 14.9 nM; at Pim1 kinase, 6.7 nM; on Pim2 kinase [3], 428 nM; at Pim3 kinase, 201 nM. The concentration for a half-maximal effect (EC50) in experiment [2] (Table 4, 3 days) stood at 3270 nM; in experiment [2] (Table 5, 3 days) it was 3270 nM.
Take `C[C@H]1C[C@@H](c2ccncc2NC(=O)c2ccc(F)c(-c3c(F)cccc3F)n2)C[C@@H](O)[C@@]1(O)CF` [Example 30, 6-(2,6-difluorophenyl)-5-fluoro-N-(4-((1R,3R,4R,5S)-4-(fluoromethyl)-3,4-dihydroxy-5-methylcyclohexyl)pyridin-3-yl) picolinamide]: the half-inhibitory concentration (IC50) against Pim2 kinase [1] turned out to be 2.2 nM; against Pim1 kinase, 0.71 nM; against Pim2 kinase [3], 50.1 nM; against Pim3 kinase, 22.8 nM. Further, the concentration for a half-maximal effect (EC50) was determined as 130 nM in experiment [2] (Table 4, 3 days) and 133 nM in experiment [2] (Table 5, 3 days).
`C[C@H]1C[C@@H](c2ccncc2NC(=O)c2ccc(F)c(-c3ccc(F)c(F)c3)n2)C[C@@H](O)[C@]1(C)O` [Example 31, 6-(3,4-difluorophenyl)-N-(4-((1R,3R,4R,5S)-3,4-dihydroxy-4,5-dimethylcyclohexyl)pyridin-3-yl)-5-fluoropicolinamide]: the 50% inhibitory concentration (IC50) at Pim2 kinase [1] came out at 93.4 nM; at Pim1 kinase it was 215 nM; on Pim2 kinase [3], 22100 nM; against Pim3 kinase, 5480 nM. Further, the EC50 was at least 10000 nM in experiment [2] (Table 4, 3 days) and above 10000 nM in experiment [2] (Table 5, 3 days).
For the compound `C[C@H]1C[C@@H](c2ccncc2NC(=O)c2ccc(F)c(-c3c(F)cc(C4(F)CCOCC4)cc3F)n2)C[C@@H](O)[C@]1(C)O` [Example 113, 6-(2,6-difluoro-4-(4-fluorotetrahydro-2H-pyran-4-yl)phenyl)-N-(4-((1R,3R,4R,5S)-3,4-dihydroxy-4,5-dimethylcyclohexyl)pyridin-3-yl)-5-fluoropicolinamide], the half-maximal inhibitory concentration (IC50) at Pim1 kinase came out at 0.55 nM; against Pim2 kinase [3] it was 128 nM; against Pim3 kinase, 127 nM. Further, the concentration for a half-maximal effect (EC50) in experiment [2] (Table 5, 3 days) stood at 248 nM.
The like results for `C[C@H]1C[C@@H](c2ccncc2NC(=O)c2nc(-c3c(F)cc(C(C)(C)O)cc3F)ccc2N)C[C@@H](O)[C@]1(C)O` [Example 114, 3-amino-6-(2,6-difluoro-4-(2-hydroxypropan-2-yl)phenyl)-N-(4-((1R,3R,4R,5S)-3,4-dihydroxy-4,5-dimethylcyclohexyl)pyridin-3-yl)picolinamide] were, in that order, 0.34 nM, 21.7 nM, 6.93 nM and 924 nM.
The matching figures for `CCN1CCC(c2cc(F)c(-c3nc(C(=O)Nc4cnccc4[C@H]4C[C@@H](O)[C@](C)(O)[C@@H](C)C4)ccc3F)c(F)c2)CC1` [Example 115, N-(4-((1R,3R,4R,5S)-3,4-dihydroxy-4,5-dimethylcyclohexyl)pyridin-3-yl)-6-(4-(1-ethylpiperidin-4-yl)-2,6-difluorophenyl)-5-fluoropicolinamide]: 0.18 nM, 104 nM, 32.8 nM and 310 nM.
The matching figures for `C[C@H]1C[C@@H](c2ccncc2NC(=O)c2ccc(F)c(-c3c(F)cc(OCC(F)(F)F)cc3F)n2)C[C@@H](N)[C@]1(C)O` [Example 118, N-(4-((1R,3R,4R,5S)-3-amino-4-hydroxy-4,5-dimethylcyclohexyl)pyridin-3-yl)-6-(2,6-difluoro-4-(2,2,2-trifluoroethoxy)phenyl)-5-fluoropicolinamide]: 0.07 nM, 3.57 nM, 1.61 nM and 539 nM.
On to `C[C@H]1C[C@@H](c2ccncc2NC(=O)c2nc(-c3nc(F)ccc3F)ccc2N)C[C@@H](O)[C@]1(C)O` [Example 125, 5-amino-N-(4-((1R,3R,4R,5S)-3,4-dihydroxy-4,5-dimethylcyclohexyl)pyridin-3-yl)-3′,6′-difluoro-2,2′-bipyridine-6-carboxamide], for which the IC50 against Pim2 kinase [1] amounted to 5.9 nM; at Pim1 kinase, 23.1 nM; on Pim2 kinase [3], 2140 nM; against Pim3 kinase it was 601 nM.
In the case of `C[C@H]1C[C@@H](c2ccncc2NC(=O)c2nc(-c3cccc(F)n3)c(F)cc2N)C[C@@H](O)[C@]1(C)O` [Example 126, 5-amino-N-(4-((1R,3R,4R,5S)-3,4-dihydroxy-4,5-dimethylcyclohexyl)pyridin-3-yl)-3,6′-difluoro-2,2′-bipyridine-6-carboxamide], the half-inhibitory concentration (IC50) on Pim2 kinase [1] stood at 43.1 nM; against Pim1 kinase it was 40.1 nM; at Pim2 kinase [3], 14200 nM; on Pim3 kinase it was 3520 nM. For the same compound, the half-maximal effective concentration (EC50) is 8030 nM in experiment [2] (Table 4, 3 days) and 8030 nM in experiment [2] (Table 5, 3 days).
`Cc1cc(F)c(-c2nc(C(=O)Nc3cnccc3[C@H]3C[C@@H](N)[C@](C)(O)[C@@H](C)C3)c(N)cc2F)c(F)c1` [Example 146, 3-amino-N-(4-((1R,3R,4R,5S)-3-amino-4-hydroxy-4,5-dimethylcyclohexyl)pyridin-3-yl)-6-(2,6-difluoro-4-methylphenyl)-5-fluoropicolinamide]: the IC50 against Pim1 kinase came to 0.02 nM; on Pim2 kinase [3], 1.66 nM; against Pim3 kinase, 0.53 nM. Further, the concentration giving a half-maximal response (EC50) in experiment [2] (Table 5, 3 days) is 49 nM.
The like results for `C[C@H]1C[C@@H](c2ccncc2NC(=O)c2nc(-c3c(F)cccc3F)c(F)cc2N)C[C@@H](N)[C@]1(C)O` [Example 147, 3-amino-N-(4-((1R,3R,4R,5S)-3-amino-4-hydroxy-4,5-dimethylcyclohexyl)pyridin-3-yl)-6-(2,6-difluorophenyl)-5-fluoropicolinamide] were, in that order, 0.04 nM, 2.37 nM, 0.53 nM and 32 nM.
The matching figures for `C[C@H]1C[C@@H](c2ccncc2NC(=O)c2ccc(F)c(-c3c(F)cc(O[C@@H]4CCCOC4)cc3F)n2)C[C@@H](N)[C@]1(C)O` [Example 148, N-(4-((1R,3R,4R,5S)-3-amino-4-hydroxy-4,5-dimethylcyclohexyl)pyridin-3-yl)-6-(2,6-difluoro-4-((R)-tetrahydro-2H-pyran-3-yloxy)phenyl)-5-fluoropicolinamide]: 0.02 nM, 1.45 nM, 0.65 nM and 85 nM.
